Source: patent US4336192A, “5,6-Dihydro-11-alkylene-morphanthridin-6-ones” (BASF Aktiengesellschaft, priority 1979, dated 1982)
“Also recorded” adds a separate entry of the source. Counter-ions that a name gives are not always drawn. Like-named read-outs stand apart in the source and are kept apart here.

Experiments:
female NMRI mice [1] = test: Sedative effect: orientation hypermotility in a new environment, measured photoelectrically; type: in vivo; conditions: for ED50: Mus musculus, 0.5 h, read-out: Sedative effect ED 50%, oral, female NMRI mice, dose which reduces orientation hypermotility by 50% vs untreated controls, 30 min after administration; for Sedative effect (in words): result in words
Experimental: The substances are administered orally to groups of 4×3 or 8×3 female NMRI mice. The orientation hypermotility induced by a new environment is determined photoelectrically, 30 minutes after the administration of the substances, for a period of 30 minutes.

female NMRI mice [2] = test: Analgesic effect: D'amour and Smith tail-flick method; type: in vivo; conditions: for Analgesic effect (in words): result in words
Experimental: The analgesic effect is determined by means of the D'amour and Smith (1941) tail-flick method. In this, the substances are administered intraperitoneally to groups of 10 female NMRI mice. The pain reaction is triggered 30 minutes after administration. The reaction time, until the tail is flicked out of the way after exposure to a focused light beam, is measured.

female NMRI mice [3] = test: Anti-cholinergic effect: protection against death from Physostigmin; type: in vivo; conditions: for ED50: Mus musculus, read-out: Anti-cholinergic effect ED 50%, oral, 30 min before Physostigmin 0.825 mg/kg s.c., female NMRI mice, dose which protects 50% of animals against death; for Anti-cholinergic effect (in words): result in words, Physostigmin antagonism; for Anti-cholinergic effect R.A. (relative activity): Clozapin = 1.00
Experimental: 3. Anti-cholinergic effect
A lethal dose (0.825 mg/kg) of Physostigmin is administered subcutaneously to groups of 10 female NMRI mice. The test substances are administered orally 30 minutes before administering the Physostigmin.

[4] = system: female Sprague-Dawley rats; test: Apomorphine-antagonistic effect: apomorphine-triggered jaw motions (mandibulogram); type: in vivo; conditions: for ED50: Rattus norvegicus, sc, read-out: Apomorphine antagonism ED 50%, female Sprague-Dawley rats, 1.5 mg of apomorphine/kg s.c., dose which reduces number of jaw movements by 50%; for Apomorphine-antagonistic effect (in words): result in words
Experimental: 4. Apomorphine-antagonistic effect
Jaw motions are triggered in groups of 4-6 female Sprague-Dawley rats by subcutaneous administration of 1.5 mg of apomorphine/kg, and are recorded by means of implanted electrodes (KUBACKI mandibulogram, 1978).

Acute toxicity = conditions: mouse, in vivo, ip, read-out: Toxicity LD 50
Experimental: The substances are administered intraperitoneally to groups of 5-10 female NMRI mice.

[5] = intraperitoneal, female NMRI mice, dose which causes death of 50% of animals

Structure (SMILES) | ED50 (female NMRI mice [1]) [mg/kg] | Sedative effect (in words) (female NMRI mice [1]) | Analgesic effect (in words) (female NMRI mice [2]) | ED50 (female NMRI mice [3]) [mg/kg] | Anti-cholinergic effect (in words) (female NMRI mice [3]) | ED50 [4] [mg/kg] | Apomorphine-antagonistic effect (in words) [4] | LD50 (Acute toxicity) [mg/kg] | Anti-cholinergic effect R.A. (relative activity) (female NMRI mice [3]) | LD50 (Acute toxicity; [5]) [mg/kg] | Analgesic effect R.A. (relative activity) (female NMRI mice [2]; relative activity, Clozapin = 1.00) | Analgesic effect ED 100% (female NMRI mice [2]; intraperitoneal, female NMRI mice, dose which lengthens tail-flick reaction time by 100% vs control, 30 min after administration)
CN1CCN(C2=Nc3ccccc3C(=CC#N)c3ccccc32)CC1 (mixture of isomers) [Example 17 (cis-trans mixture), cis,trans-11-cyanomethylene-6-(4-methyl-piperazin-1-yl)-morphanthridine] | 2.78 | relatively strong sedative effects; also recorded: more strongly sedative | not analgesically active | 6.26 | manifests itself especially; also recorded: more strongly sedative and anti-cholinergic | 22 | somewhat weaker than that of Clozapin | 121 |  |  |  | 
Cc1ccc2c(c1)N=C(N1CCN(C)CC1)c1ccccc1C2=CC#N (mixture of isomers) [Example 30 (cis-trans mixture), cis,trans-3-Methyl-11-cyanomethylene-6-(4-methylpiperazin-1-yl)-morphanthridine] | 0.804 | strong sedative effects; also recorded: high sedative activity (greater than that of Clozapin and Perlapin) | An analgesic effect is found; also recorded: stronger analgesic effect | 31.2 | moderate anti-cholinergic effect | 35 |  |  | 0.45 | 178 |  | 
Cc1ccc2c(c1)C(=CC#N)c1ccccc1C(N1CCN(C)CC1)=N2 (mixture of isomers) [Example 31 (cis-trans mixture), cis,trans-2-Methyl-11-cyanomethylene-6-(4-methylpiperazin-1-yl)-morphanthridine] | 3.35 | relatively strong sedative effects |  | 2.74 | manifests itself especially | 42 |  |  |  | 50 |  | 
CCN1CCN(C2=Nc3ccccc3C(=CC#N)c3ccccc32)CC1 (mixture of isomers) [Example 36 (cis-trans mixture), cis,trans-11-Cyanomethylene-6-(4-ethyl-piperazin-1-yl)-morphanthridine] | 3.34 | relatively strong sedative effects |  | 7.8 | manifests itself especially | 43 |  | 100 |  |  |  | 
N#CC=C1c2ccccc2N=C(N2CCCNCC2)c2ccccc21 (mixture of isomers) [Example 37 (cis-trans mixture), cis,trans-11-Cyanomethylene-6-homopiperazin-1-yl-morphanthridine.HCl.H2 O] | > 21.5 |  |  | 5.49 | manifests itself especially | > 100 |  |  | 2.57 | 69.8 |  | 
N#CC=C1c2ccccc2N=C(NCCN2CCCCC2)c2ccccc21 (mixture of isomers) [Example 39 (cis-trans mixture), cis,trans-11-Cyanomethylene-6-(2-piperidin-1-ylethylamino)-morphanthridine.1/2H2 O] | 1.61 | strong sedative effects |  | > 10 |  | 46 |  |  | > 1.41 | 5.35 | > 0.21 | 
C[N+]1([O-])CCN(C2=Nc3ccccc3C(=CC#N)c3ccccc32)CC1 (mixture of isomers) [Example 44 (cis-trans mixture), cis,trans-11-Cyanomethylene-6-(4-methyl-4-oxy-piperazin-1-yl)-morphanthridine.2H2 O] | 14.3 |  |  | 1.98 | manifests itself especially | 85 |  |  | 7.12 | 464 |  | 
CN1CCN(C2=Nc3cc(Cl)ccc3Nc3ccccc32)CC1 [Clozapin, reference compound] | 4.74 |  |  | 14.1 |  | 8 |  |  | 1.00 | 215 |  | 
CN1CCN(C2=Nc3ccccc3/C(=C/C#N)c3ccccc32)CC1 [Example 17 (cis-isomer), cis 11-cyanomethylene-6-(4-methylpiperazin-1-yl)-morphanthridine] | 1.98 | strong sedative effects; also recorded: responsible for the sedative effect |  | 17.4 | relative to Clozapin, an approximately comparable anti-cholinergic effect | 46 | lower apomorphine-antagonistic effect | 147 |  |  |  | 
CN1CCN(C2=Nc3ccccc3/C(=C\C#N)c3ccccc32)CC1 [Example 17 (trans-isomer), trans-11-cyanomethylene-6-(4-methyl-piperazin-1-yl)-morphanthridine] | > 21.5 | very slight |  | 4.7 | manifests itself especially; also recorded: particularly exhibits an anti-cholinergic and apomorphine-antagonistic effect | 12 | particularly exhibits an anti-cholinergic and apomorphine-antagonistic effect |  |  | 332 |  | 
Cc1ccc2c(c1)N=C(N1CCN(C)CC1)c1ccccc1/C2=C\C#N [Example 30 (cis-isomer), cis-3-methyl-11-cyanomethylene-6-(4-methyl-piperazin-1-yl)-morphanthridine] | 1.06 | strong sedative and strong analgesic effects | substantially more active than Clozapin; also recorded: strong sedative and strong analgesic effects |  |  | 85 | weaker apomorphine-antagonistic effect than that of Clozapin and Perlapin | 287 |  |  |  | 
Cc1ccc2c(c1)N=C(N1CCN(C)CC1)c1ccccc1/C2=C/C#N [Example 30 (trans-isomer), trans-3-methyl-11-cyanomethylene-6-(4-methylpiperazin-1-yl)-morphanthridine] | 33.6 | little or no sedative effect |  | 12.3 | stronger anti-cholinergic and apomorphine-antagonistic effect | 19 | stronger anti-cholinergic and apomorphine-antagonistic effect |  |  | > 100 |  | 
CCN1CCN(C2=Nc3ccccc3/C(=C\C#N)c3ccccc32)CC1 [Example 36 (trans-isomer), trans-11-cyanomethylene-6-(4-ethyl-piperazin-1-yl)-morphanthridine] | > 100 | little or no sedative effect |  | 5.6 | manifests itself especially; also recorded: stronger anti-cholinergic and apomorphine-antagonistic effect | 22 | stronger anti-cholinergic and apomorphine-antagonistic effect |  |  | > 100 |  | 
C[N+]1([O-])CCN(C2=Nc3ccccc3/C(=C/C#N)c3ccccc32)CC1 [Example 44 (cis-isomer), cis-11-cyanomethylene-6-(4-methyl-4-oxy-piperazin-1-yl)-morphanthridine] | 17.6 |  |  | 100 |  | > 100 |  |  | 0.14 | 261 |  | 
C[N+]1([O-])CCN(C2=Nc3ccccc3/C(=C\C#N)c3ccccc32)CC1 [Example 44 (trans-isomer), trans-11-cyanomethylene-6-(4-methyl-4-oxy-piperazin-1-yl)-morphanthridine] | 100 | little or no sedative effect |  | 3.74 | manifests itself especially; also recorded: stronger anti-cholinergic and apomorphine-antagonistic effect | 25 | stronger anti-cholinergic and apomorphine-antagonistic effect |  | 3.77 | 559 |  | 
CN1CCN(C2=Nc3ccccc3Cc3ccccc32)CC1 [Perlapin, reference compound] | 2.05 |  |  | > 21.5 |  | 22 |  |  | < 0.66 | 215 |  | > 21.5
